In patent US20260355212A1 (priority 2022, published 2026):
Where two headings read alike, the source gives them in different places.

Legend:
SARS-CoV-1 Mpro = SARS-CoV-1 Mpro (Severe acute respiratory syndrome coronavirus, UniProt P0C6X7); experiment: biochemical
MERS Mpro = MERS Mpro (Middle East respiratory syndrome-related coronavirus, UniProt K9N7C7); experiment: biochemical; set-up: species or system MERS-CoV
HCoV-NL63 Mpro = HCoV-NL63 Mpro (Human coronavirus NL63, UniProt P0C6X5); experiment: HCoV-NL63 Mpro enzymatic inhibition assay (fluorescence); format: biochemical
Method in brief: (§1)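 Recombinant Mpro from E. coli was pre-incubated with compound (3-fold, 10-point dilutions, duplicates) for 30 min at room temperature, then fluorogenic peptide substrate was added and fluorescence read at Ex/Em 340/490 nm after 60 min at 30 °C. IC50 came from four-parameter fits of background-corrected inhibition.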

SARS-CoV-2 Mpro = SARS-CoV-2 Mpro (Severe acute respiratory syndrome coronavirus 2, UniProt P0DTD1); experiment: SARS-CoV-2 Mpro enzymatic inhibition assay (fluorescence); format: biochemical
Method in brief: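 A fluorescence readout (340 nm excitation, 490 nm emission) was taken after the substrate reaction ran 60 min at 30° C. Before substrate addition, E. coli-expressed protease and compound (3-fold dilutions, 10 doses, duplicates) sat together 30 min at room temperature. Percent inhibition was fitted by variable-slope nonlinear regression to give IC50.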

HCoV-HKU1 Mpro = HCoV-HKU1 Mpro (Human coronavirus HKU1, UniProt P0C6X2); experiment: HCoV-HKU1 Mpro enzymatic inhibition assay (fluorescence); format: biochemical
Method in brief: as §1

HCoV-229E Mpro = HCoV-229E Mpro (Human coronavirus 229E, UniProt P0C6X1); experiment: HCoV-229E Mpro enzymatic inhibition assay (fluorescence); format: biochemical
HCoV-OC43 Mpro = HCoV-OC43 Mpro (Human coronavirus OC43, UniProt P0C6X6); experiment: HCoV-OC43 Mpro enzymatic inhibition assay (fluorescence); format: biochemical
Method in brief: as §1

[1] = mean, 25 nM protein, 25 μM substrate, 30 min pre-incubation, 60 min at 30° C., read-out: Mpro_SARS-CoV-2 mean IC50

Chain of HCoV-HKU1 Mpro (P0C6X2 3335-3637 limits assumed): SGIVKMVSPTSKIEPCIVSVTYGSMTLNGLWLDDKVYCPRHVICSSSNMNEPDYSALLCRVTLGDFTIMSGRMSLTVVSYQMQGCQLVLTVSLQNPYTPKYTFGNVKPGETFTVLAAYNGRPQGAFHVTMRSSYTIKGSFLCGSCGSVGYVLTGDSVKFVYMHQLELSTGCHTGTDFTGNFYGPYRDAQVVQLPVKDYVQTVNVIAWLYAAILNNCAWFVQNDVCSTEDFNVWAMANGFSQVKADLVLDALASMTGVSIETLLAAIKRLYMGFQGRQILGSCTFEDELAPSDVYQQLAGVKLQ
Chain of HCoV-NL63 Mpro (P0C6X5 2940-3242 limits assumed): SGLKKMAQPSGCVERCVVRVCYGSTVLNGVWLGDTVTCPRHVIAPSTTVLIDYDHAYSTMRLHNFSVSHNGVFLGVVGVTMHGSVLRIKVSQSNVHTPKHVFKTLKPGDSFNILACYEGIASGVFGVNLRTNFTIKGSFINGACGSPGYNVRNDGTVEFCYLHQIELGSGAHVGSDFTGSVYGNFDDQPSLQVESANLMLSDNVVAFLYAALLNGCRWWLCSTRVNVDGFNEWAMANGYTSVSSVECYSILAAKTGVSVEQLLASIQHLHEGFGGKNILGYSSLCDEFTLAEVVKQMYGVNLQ
Chain of HCoV-OC43 Mpro (P0C6X6 3247-3549 limits assumed): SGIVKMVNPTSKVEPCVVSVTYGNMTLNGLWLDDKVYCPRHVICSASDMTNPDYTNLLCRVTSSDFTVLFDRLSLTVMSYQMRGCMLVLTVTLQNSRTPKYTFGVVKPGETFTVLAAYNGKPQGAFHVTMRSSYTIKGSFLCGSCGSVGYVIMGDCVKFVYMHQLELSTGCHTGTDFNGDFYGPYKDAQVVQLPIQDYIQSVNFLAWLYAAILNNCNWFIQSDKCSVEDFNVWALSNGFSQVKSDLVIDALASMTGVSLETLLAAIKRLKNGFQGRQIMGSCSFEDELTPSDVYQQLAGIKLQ
Chain of MERS Mpro (K9N7C7 3248-3553 limits assumed): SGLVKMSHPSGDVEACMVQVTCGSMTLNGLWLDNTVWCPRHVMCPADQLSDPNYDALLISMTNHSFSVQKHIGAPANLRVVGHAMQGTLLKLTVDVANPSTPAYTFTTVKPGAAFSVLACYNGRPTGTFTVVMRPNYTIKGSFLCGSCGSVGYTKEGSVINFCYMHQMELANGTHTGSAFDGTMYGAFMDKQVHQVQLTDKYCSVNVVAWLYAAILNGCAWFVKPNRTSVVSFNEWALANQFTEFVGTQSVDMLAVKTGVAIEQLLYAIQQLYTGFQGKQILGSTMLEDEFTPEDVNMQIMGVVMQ
Chain of HCoV-229E Mpro (P0C6X1 2966-3267 limits assumed): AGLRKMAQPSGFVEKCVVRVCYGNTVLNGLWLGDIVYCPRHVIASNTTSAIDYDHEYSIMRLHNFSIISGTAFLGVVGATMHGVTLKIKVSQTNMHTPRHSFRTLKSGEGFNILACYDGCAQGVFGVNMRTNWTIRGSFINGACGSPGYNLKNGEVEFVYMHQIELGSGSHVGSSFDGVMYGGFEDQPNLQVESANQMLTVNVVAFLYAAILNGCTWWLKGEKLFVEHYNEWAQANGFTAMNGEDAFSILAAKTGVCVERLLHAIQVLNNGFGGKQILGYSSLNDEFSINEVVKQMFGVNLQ

Compound | IC50 (SARS-CoV-1 Mpro) | IC50 (MERS Mpro) | IC50 (HCoV-NL63 Mpro) | IC50 (SARS-CoV-2 Mpro) | IC50 (HCoV-HKU1 Mpro) | IC50 (HCoV-229E Mpro) | IC50 (HCoV-OC43 Mpro) | IC50 (HCoV-NL63 Mpro; mean, 50 nM protein, 12.5 μM substrate, 30 min pre-incubation, 60 min at 30° C., read-out: Mpro_NL63 mean IC50) | IC50 (SARS-CoV-2 Mpro; [1]) | IC50 (HCoV-HKU1 Mpro; mean, 12.5 nM protein, 12.5 μM substrate, 30 min pre-incubation, 60 min at 30° C., read-out: Mpro_HKU1 mean IC50) | IC50 (HCoV-229E Mpro; mean, 50 nM protein, 12.5 μM substrate, 30 min pre-incubation, 60 min at 30° C., read-out: Mpro_229E mean IC50) | IC50 (HCoV-OC43 Mpro; mean, 25 nM protein, 12.5 μM substrate, 30 min pre-incubation, 60 min at 30° C., read-out: Mpro_OC43 mean IC50)
C[C@@H](C(=O)N1C[C@H]2[C@@H]([C@H]1C(=O)N[C@H](C=O)C[C@@H]1CCNC1=O)C2(C)C)C1CCCCC1 [Compound 67, (1R,2S,5S)-3-((R)-2-Cyclohexylpropanoyl)-6,6-dimethyl-N—((S)-1-oxo-3-((S)-2-oxopyrrolidin-3-yl)propan-2-yl)-3-azabicyclo[3.1.0]hexane-2-carboxamide] | 44.1 nM | 170 nM | 51.8 nM | 27.8 nM | 10.8 nM | 27.3 nM | 33.2 nM | – | – | – | – | –
CC1(C)[C@@H]2[C@@H](C(=O)N[C@H](C=O)C[C@@H]3CCNC3=O)N(C(=O)c3cc4cccc(C#N)c4[nH]3)C[C@@H]21 [Compound 32, (1R,2S,5S)-3-(7-cyano-1H-indole-2-carbonyl)-6,6-dimethyl-N—((S)-1-oxo-3-((S)-2-oxopyrrolidin-3-yl)propan-2-yl)-3-azabicyclo[3.1.0]hexane-2-carboxamide] | 36.3 nM | 177 nM | 59.6 nM | 19.7 nM | 21.8 nM | 35.4 nM | 52.4 nM | – | – | – | – | –
Cc1cccc([C@@H](C)C(=O)N2C[C@H]3[C@@H]([C@H]2C(=O)N[C@H](C#N)C[C@@H]2CCNC2=O)C3(C)C)c1 [Compound 120] | 196 nM | 1130 nM | – | – | – | – | – | 1400 nM | 151 nM | 193 nM | 299 nM | 567 nM
Cc1cccc2cc(C(=O)N3C[C@H]4[C@@H]([C@H]3C(=O)N[C@H](C=O)C[C@@H]3CCNC3=O)C4(C)C)[nH]c12 [Compound 33, (1R,2S,5S)-6,6-Dimethyl-3-(7-methyl-1H-indole-2-carbonyl)-N—((S)-1-oxo-3-((S)-2-oxopyrrolidin-3-yl)propan-2-yl)-3-azabicyclo[3.1.0]hexane-2-carboxamide] | 34 nM | 227 nM | 78 nM | 19.7 nM | 37.9 nM | 43.5 nM | 83.2 nM | – | – | – | – | –
CC1(C)[C@@H]2[C@@H](C(=O)N[C@H](C=O)C[C@@H]3CCNC3=O)N(C(=O)c3cc4cc(F)ccc4[nH]3)C[C@@H]21 [Compound 24, (1R,2S,5S)-3-(5-fluoro-1H-indole-2-carbonyl)-N-[(1S)-1-formyl-2-[(3S)-2-oxopyrrolidin-3-yl]ethyl]-6,6-dimethyl-3-azabicyclo[3.1.0]hexane-2-carboxamide] | 73.6 nM | 271 nM | 71.7 nM | 16.6 nM | 31.8 nM | 32.3 nM | 60.5 nM | – | – | – | – | –
O=C[C@H](C[C@@H]1CCNC1=O)NC(=O)[C@@H]1[C@H]2CCC[C@H]2CN1C(=O)c1cc2ccccc2[nH]1 [Compound 26, (1S,3aR,6aS)-2-(1H-indole-2-carbonyl)-N—((S)-1-oxo-3-((S)-2-oxopyrrolidin-3-yl)propan-2-yl)octahydrocyclopenta[c]pyrrole-1-carboxamide] | 93.7 nM | 173 nM | 37.8 nM | 16.8 nM | 20.7 nM | 42.7 nM | 28.6 nM | – | – | – | – | –
O=C[C@H](C[C@@H]1CCNC1=O)NC(=O)[C@@H]1CC2(CC2)CN1C(=O)c1cc2cccc(Cl)c2[nH]1 [Compound 2, (S)-5-(7-chloro-1H-indole-2-carbonyl)-N—((S)-1-oxo-3-((S)-2-oxopyrrolidin-3-yl)propan-2-yl)-5-azaspiro[2.4]heptane-6-carboxamide] | 42.5 nM | 199 nM | 48.4 nM | 9.84 nM | 10.4 nM | 32.6 nM | 38.2 nM | – | – | – | – | –
C[C@@H]1C[C@@H](C(=O)N[C@H](C=O)C[C@@H]2CCNC2=O)N(C(=O)c2cc3ccccc3[nH]2)C1 [Compound 107, (2S,4R)-1-(1H-Indole-2-carbonyl)-4-methyl-N—((S)-1-oxo-3-((S)-2-oxopyrrolidin-3-yl)propan-2-yl)pyrrolidine-2-carboxamide] | 186 nM | 522 nM | 62 nM | 77 nM | 46.5 nM | 44.2 nM | 195 nM | – | – | – | – | –
CC(C)c1cccc2[nH]c(C(=O)N3C[C@H]4[C@@H]([C@H]3C(=O)N[C@H](C=O)C[C@@H]3CCNC3=O)C4(C)C)cc12 [Compound 34, (1R,2S,5S)-3-(4-isopropyl-1H-indole-2-carbonyl)-6,6-dimethyl-N—((S)-1-oxo-3-((S)-2-oxopyrrolidin-3-yl)propan-2-yl)-3-azabicyclo[3.1.0]hexane-2-carboxamide] | 35.3 nM | 278 nM | 65.3 nM | – | 20.8 nM | 37.7 nM | 57.9 nM | – | 19.8 nM | – | – | –
O=C[C@H](C[C@@H]1CCNC1=O)NC(=O)[C@@H]1C[C@@H]2C[C@@H]2N1C(=O)c1cc2ccccc2[nH]1 [Compound 125, (1S,3S,5S)-2-(1H-Indole-2-carbonyl)-N—((S)-1-oxo-3-((S)-2-oxopyrrolidin-3-yl)propan-2-yl)-2-azabicyclo[3.1.0]hexane-3-carboxamide] | 685 nM | 916 nM | 218 nM | 228 nM | 154 nM | 116 nM | 284 nM | – | – | – | – | –
CC1(C)[C@@H]2[C@@H](C(=O)N[C@H](C=O)C[C@@H]3CCNC3=O)N(C(=O)c3cc4c(F)cccc4[nH]3)C[C@@H]21 [Compound 15, (1R,2S,5S)-3-(4-fluoro-1H-indole-2-carbonyl)-6,6-dimethyl-N—((S)-1-oxo-3-((S)-2-oxopyrrolidin-3-yl)propan-2-yl)-3-azabicyclo[3.1.0]hexane-2-carboxamide] | 32.7 nM | 175 nM | 44.5 nM | 14.5 nM | 24.2 nM | 39.7 nM | 32.8 nM | – | – | – | – | –
CC1(C)C[C@@H](C(=O)N[C@H](C=O)C[C@@H]2CCNC2=O)N(C(=O)c2cc3cccc(Cl)c3[nH]2)C1 [Compound 9, (S)-1-(7-chloro-1H-indole-2-carbonyl)-4,4-dimethyl-N—((S)-1-oxo-3—((S)-2-oxopyrrolidin-3-yl)propan-2-yl)pyrrolidine-2-carboxamide] | 37.8 nM | 313 nM | 52.3 nM | 12.1 nM | 20.5 nM | 30.9 nM | 65.1 nM | – | – | – | – | –
O=C[C@H](C[C@@H]1CCNC1=O)NC(=O)[C@@H]1CC2(CC2)CN1C(=O)CC1CCCCC1 [Compound 126, (S)-5-(2-Cyclohexylacetyl)-N—((S)-1-oxo-3-((S)-2-oxopyrrolidin-3-yl)propan-2-yl)-5-azaspiro[2.4]heptane-6-carboxamide] | 84.5 nM | 358 nM | 97.7 nM | 231 nM | 38.4 nM | 56.3 nM | 112 nM | – | – | – | – | –
COc1ccc2cc(C(=O)N3C[C@H]4[C@@H]([C@H]3C(=O)N[C@H](C=O)C[C@@H]3CCNC3=O)C4(C)C)[nH]c2c1 [Compound 56, (1R,2S,5S)-3-(6-Methoxy-1H-indole-2-carbonyl)-6,6-dimethyl-N—((S)-1-oxo-3-((S)-2-oxopyrrolidin-3-yl)propan-2-yl)-3-azabicyclo[3.1.0]hexane-2-carboxamide] | 64.7 nM | 291 nM | 59.9 nM | 25.7 nM | 12.8 nM | 42.6 nM | 59.8 nM | – | – | – | – | –
CO[C@H]1C[C@@H](C(=O)N[C@H](C=O)C[C@@H]2CCNC2=O)N(C(=O)c2cc3ccccc3[nH]2)C1 [Compound 102, (2S,4S)-1-(1H-Indole-2-carbonyl)-4-methoxy-N—((S)-1-oxo-3-((S)-2-oxopyrrolidin-3-yl)propan-2-yl)pyrrolidine-2-carboxamide] | 204 nM | 631 nM | 199 nM | 63.2 nM | 83 nM | 118 nM | 141 nM | – | – | – | – | –
O=C[C@H](C[C@@H]1CCNC1=O)NC(=O)[C@@H]1[C@H]2C[C@H]2CN1C(=O)c1cc2ccccc2[nH]1 [Compound 130, (1S,2S,5R)-3-(1H-Indole-2-carbonyl)-N—((S)-1-oxo-3-((S)-2-oxopyrrolidin-3-yl)propan-2-yl)-3-azabicyclo[3.1.0]hexane-2-carboxamide] | 832 nM | 838 nM | 130 nM | 372 nM | 87.4 nM | 191 nM | 398 nM | – | – | – | – | –
